# Source: patent US11179501B2, “Bone morphogenetic protein pathway activation, compositions for ossification, and methods related thereto” (Emory University, priority 2011, dated 2021)
# Counter-ions that a name gives are not always drawn.
# Tested on: C2C12 cells
# Assay: Alkaline phosphatase (ALP) assay: potentiation of BMP-2-induced ALP activity
# Details: ALP assay, C2C12 cells
# Experimental: Their activity was evaluated by determining the potentiation of alkaline phosphatase activity in sub-optimal doses of BMP in the presence or absence of exogenously added noggin.
# The BMP-potentiating activities of compounds may be evaluated by monitoring several markers of the osteoblastic phenotype corresponding to various time points during phenotype differentiation of C2C12 cells towards terminally differentiated osteoblasts.
# The C2C12 cells at passages 5 to 10 were subcultured in T-75 cm^2 flasks in DMEM supplemented with 10% FBS at 37° C. in 5% CO2 with humidification. When the flasks reached 80% confluence, the cells were trypsinized and seeded in triplicate.
# The C2C12 cells were plated at 200,000 cells/well in 6-well plates and grown overnight in DMEM containing 10% FBS. On day 2, the culture medium was replaced with DMEM containing 2% FBS and the cells were treated with various concentrations of compound for 24 hours. On day 3, the culture medium was replaced with DMEM containing 2% FBS and the cells were treated with 50 ng/ml of BMP-2 and various concentrations of compound for 72 hours. The cells were washed with phosphate-buffered saline (PBS) and lysed by addition of lysis buffer (10 mM Tris-HCl pH 8.0, 1 mM MgCl2 and 1.0% Triton X-100). The cell lysates were centrifuged for 5 minutes at 13,000×g. The supernatant was removed and the aliquots were assayed for ALP activity and protein amount. The ALP activity was measured in triplicate using an ALP assay kit (Sigma-Aldrich, St. Louis, Mo.) in microtiter plates. The protein amount was determined with Bio-Rad protein assay reagent (Bio-Rad, Hercules, Calif.) using bovine serum albumin (BSA) as a standard. The ALP activity (nmoles of p-nitrophenol per ml) was normalized to the protein amount (nmoles of p-nitrophenol per μg).
row,SMILES,cell lifting from culture plates
1,"CCCCCCNC(=O)n1cc(F)c(=O)[nH]c1=O [carmofur, 5-fluoro-N-hexyl-2,4-dioxo-3,4-dihydropyrimidine-1(2H)-carboxamide]",caused cell lifting from culture plates
2,O=c1[nH]cc(F)c(=O)[nH]1 [5-fluorouracil],caused cell lifting from culture plates
3,"CCC(C)n1ncn(-c2ccc(N3CCN(c4ccc(OCC5COC(Cn6cncn6)(c6ccc(Cl)cc6Cl)O5)cc4)CC3)cc2)c1=O (centres unmarked) [itraconazole, 4-(4-(4-(4((2((1H-1,2,4-triazol-1-yl)methyl)-2-(2,4-dichlorophenyl)-1,3-dioxolan-4-yl)methoxy)phenyl)piperazin-1-yl)phenyl)-1-(sec-butyl)-1H-1,2,4-triazol-5(4H)-one]",caused cell lifting from culture plates
4,C=C1/C(=C\C=C2/CCC[C@]3(C)[C@@H]([C@H](C)CCCC(C)(C)O)CC[C@@H]23)C[C@@H](O)C[C@@H]1O [calcitriol],caused cell lifting from culture plates
5,CCC1=C[C@@H]2CN(C1)Cc1c([nH]c3ccccc13)[C@@](C(=O)OC)(c1cc3c(cc1OC)N(C)[C@H]1[C@@](O)(C(=O)OC)[C@H](OC(C)=O)[C@]4(CC)C=CCN5CC[C@]31[C@@H]54)C2 [Vinorelbine tartrate],caused cell lifting from culture plates
6,"O=C1c2c(O)ccc(O)c2C(=O)c2c(NCCNCCO)ccc(NCCNCCO)c21 [Mitoxantrone, mitoxantrone]",caused cell lifting from culture plates
7,"CC(=O)O[C@@]12CO[C@@H]1C[C@H](O)[C@@]1(C)C(=O)[C@H](O)C3=C(C)[C@@H](OC(=O)[C@H](O)[C@@H](NC(=O)OC(C)(C)C)c4ccccc4)C[C@](O)([C@@H](OC(=O)c4ccccc4)[C@H]21)C3(C)C [Docetaxel, (2aR,4S,4aS,6R,9S,11R,12S,12aR,12b S)-12b-acetoxy-9-(((2R,3S)-3-((tert-butoxycarbonyl)amino)-2-hydroxy-3-phenylpropanoyl)oxy)-4,6,11-trihydroxy-4a,8,13,13-tetramethyl-5-oxo-2a,3,4,4a,5,6,9,10,11,12,12a,12b-dodecahydro-1H-7,11-methanocyclodeca[3,4]benzo[1,2-b]oxet-12-yl benzoate]",caused cell lifting from culture plates

# Same assay, conditions: C2C12 cells; fold over BMP alone control
row,SMILES,Fold-increase of BMP-induced ALP (over BMP alone control)
1,Nc1ncn([C@H]2C[C@H](O)[C@@H](CO)O2)c(=O)n1 [Decitabine],6.0
2,CCC1=C[C@@H]2CN(C1)Cc1c([nH]c3ccccc13)[C@@](C(=O)OC)(c1cc3c(cc1OC)N(C)[C@H]1[C@@](O)(C(=O)OC)[C@H](OC(C)=O)[C@]4(CC)C=CCN5CC[C@]31[C@@H]54)C2 [Vinorelbine tartrate],4.0
3,COc1cccc2c1C(=O)c1c(O)c3c(c(O)c1C2=O)C[C@@](O)(C(=O)CO)C[C@@H]3O[C@H]1C[C@H](N)[C@H](O)[C@H](C)O1 [Doxorubicin],4.0
4,"C#CC(c1ccccc1)(c1ccccc1)n1ccnc1 [1-(1,1-diphenylprop-2-yn-1-yl)-1H-imidazole]",7.0
5,CC[C@@]1(O)C(=O)OCc2c1cc1n(c2=O)Cc2cc3c(CN(C)C)c(O)ccc3nc2-1 [Topotecan],4.0
6,CC[C@]1(O)C[C@H]2CN(CCc3c([nH]c4ccccc34)[C@@](C(=O)OC)(c3cc4c(cc3OC)N(C=O)[C@H]3[C@@](O)(C(=O)OC)[C@H](OC(C)=O)[C@]5(CC)C=CCN6CC[C@]43[C@@H]65)C2)C1 [Vincristine],5.0
7,"O=C1c2c(O)ccc(O)c2C(=O)c2c(NCCNCCO)ccc(NCCNCCO)c21 [Mitoxantrone, mitoxantrone]",4.0
8,COc1cc([C@@H]2c3cc4c(cc3[C@@H](O[C@@H]3O[C@@H]5CO[C@@H](c6cccs6)O[C@H]5[C@H](O)[C@H]3O)[C@H]3COC(=O)[C@H]23)OCO4)cc(OC)c1O [Teniposide],7.0
9,CCCCC(=O)OCC(=O)[C@]1(O)Cc2c(O)c3c(c(O)c2[C@@H](O[C@H]2C[C@H](NC(=O)C(F)(F)F)[C@H](O)[C@H](C)O2)C1)C(=O)c1c(OC)cccc1C3=O [Valrubicin],3.0
10,Nc1ccn([C@@H]2O[C@H](CO)[C@@H](O)[C@@H]2O)c(=O)n1 [Cytarabine HCl],2.0
